pIC50: −log10 of the molar value. Like-named read-outs stand apart in the source and are kept apart here.
Key:
[1] = tested on: HepG2-A16-CD81EGFP cells; conditions: for pIC50: read-out: Tox_IC50, HepG2 cytotoxicity
[2] = tested on: Plasmodium berghei (Pb-Luc) exoerythrocytic-stage parasites; conditions: for pIC50: read-out: PbLuc_IC50
[3] = sheet 2nd round, maximal inhibition in dose response
[4] = first series of dose-response columns, fraction of control
[5] = first series, fraction of control
[6] = sheet 2nd round, Broad compounds, dose response
[7] = second series of dose-response columns, fraction of control
[8] = second series, fraction of control
[9] = 2nd round, maximal inhibition in dose series
[10] = first series of columns, fraction of control
[11] = sheet 2nd round, Pb-Luc exoerythrocytic stage, 10-point dose response, top concentration 10
[12] = second series of columns (replicate), fraction of control

C[C@@H]1CN([C@H](C)CO)C(=O)c2cc(N(C)C)ccc2O[C@@H](C)CCCCO[C@H]1CN(C)S(=O)(=O)c1ccc(F)cc1 [BRD-K72687327-001-01-6]
pIC50 ([1]; sheet 2nd round): < 5.00
Tox_max_inhibition (%) [1, 3]: 11%
normalized signal at concentration 10 [2, 4]: 0.73
normalized signal at concentration 0.000508053 [2, 5]: 1.09
normalized signal at concentration 0.00152416 [2, 5]: 1.10
normalized signal at concentration 0.00457247 [2, 5]: 0.91
normalized signal at concentration 0.0137174 [2, 5]: 1.11
normalized signal at concentration 0.0411523 [2, 5]: 0.89
normalized signal at concentration 0.123457 [2, 5]: 0.84
normalized signal at concentration 0.37037 [2, 5]: 0.92
normalized signal at concentration 1.11111 [2, 5]: 0.97
normalized signal at concentration 3.33333 [2, 5]: 1.01
pIC50 [2, 6]: < 5.00
normalized signal at concentration 10 [2, 7]: 0.75
normalized signal at concentration 0.000508053 [2, 8]: 0.96
normalized signal at concentration 0.00152416 [2, 8]: 1.08
normalized signal at concentration 0.00457247 [2, 8]: 0.94
normalized signal at concentration 0.0137174 [2, 8]: 1.05
normalized signal at concentration 0.0411523 [2, 8]: 1.15
normalized signal at concentration 0.123457 [2, 8]: 0.88
normalized signal at concentration 0.37037 [2, 8]: 1.15
normalized signal at concentration 1.11111 [2, 8]: 1.02
normalized signal at concentration 3.33333 [2, 8]: 1.11
PbLuc_max_inhibition (%) [2, 3]: 27%

COc1ccc(NC(=O)N(C)C[C@H]2Oc3ccc(NC(=O)Nc4cccc5ccccc45)cc3CC(=O)N([C@@H](C)CO)C[C@@H]2C)cc1 [BRD-K15104969-001-01-5]
Tox_max_inhibition (%) [1, 9]: 14%
pIC50 ([1]; 2nd round, unit inferred): < 5.00
PbLuc_max_inhibition (%) [2, 9]: 44%
normalized signal at 0.000508053 (first series) ([2]; concentration 0.000508053, first replicate series, fraction of control): 0.969
normalized signal at 0.000508053 (second series) ([2]; concentration 0.000508053, second replicate series, fraction of control): 0.7927
normalized signal at 0.00152416 (first series) ([2]; concentration 0.00152416, first replicate series, fraction of control): 1.086
normalized signal at 0.00152416 (second series) ([2]; concentration 0.00152416, second replicate series, fraction of control): 0.9921
normalized signal at 0.00457247 (first series) ([2]; concentration 0.00457247, first replicate series, fraction of control): 0.8915
normalized signal at 0.00457247 (second series) ([2]; concentration 0.00457247, second replicate series, fraction of control): 0.8364
normalized signal at 0.0137174 (first series) ([2]; concentration 0.0137174, first replicate series, fraction of control): 1.267
normalized signal at 0.0137174 (second series) ([2]; concentration 0.0137174, second replicate series, fraction of control): 0.9174
normalized signal at 0.0411523 (first series) ([2]; concentration 0.0411523, first replicate series, fraction of control): 0.9934
normalized signal at 0.0411523 (second series) ([2]; concentration 0.0411523, second replicate series, fraction of control): 0.8265
normalized signal at 0.123457 (first series) ([2]; concentration 0.123457, first replicate series, fraction of control): 1.28
normalized signal at 0.123457 (second series) ([2]; concentration 0.123457, second replicate series, fraction of control): 0.8011
normalized signal at 0.37037 (first series) ([2]; concentration 0.37037, first replicate series, fraction of control): 0.9047
normalized signal at 0.37037 (second series) ([2]; concentration 0.37037, second replicate series, fraction of control): 0.8073
normalized signal at 1.11111 (first series) ([2]; concentration 1.11111, first replicate series, fraction of control): 0.8441
normalized signal at 1.11111 (second series) ([2]; concentration 1.11111, second replicate series, fraction of control): 0.8236
normalized signal at 3.33333 (first series) ([2]; concentration 3.33333, first replicate series, fraction of control): 0.7436
normalized signal at 3.33333 (second series) ([2]; concentration 3.33333, second replicate series, fraction of control): 1.005
normalized signal at 10 (first series) ([2]; concentration 10, first replicate series, fraction of control): 0.5627
normalized signal at 10 (second series) ([2]; concentration 10, second replicate series, fraction of control): 0.5558
pIC50 ([2]; 2nd round, Broad DOS compounds, unit not printed (dose series head 10 to 0.000508053)): < 5.00

C[C@H]1CN([C@@H](C)CO)C(=O)CCCn2cc(nn2)CO[C@H]1CN(C)C(=O)Nc1cccc2ccccc12 [BRD-K54628954-001-01-2]
pIC50 ([1]; sheet 2nd round): < 5.00
Tox_max_inhibition (%) [1, 3]: 1.76%
normalized signal at concentration 0.000508053 [2, 10]: 0.8794
normalized signal at concentration 0.00152416 [2, 10]: 0.9359
normalized signal at concentration 0.00457247 [2, 10]: 0.9054
normalized signal at concentration 0.0137174 [2, 10]: 0.8762
normalized signal at concentration 0.0411523 [2, 10]: 0.8388
normalized signal at concentration 0.123457 [2, 10]: 0.9562
normalized signal at concentration 0.37037 [2, 10]: 0.9801
normalized signal at concentration 1.11111 [2, 10]: 0.9783
normalized signal at concentration 3.33333 [2, 10]: 0.874
normalized signal at concentration 10 [2, 10]: 0.9112
pIC50 [2, 11]: < 5.00
normalized signal at concentration 0.000508053 [2, 12]: 0.8292
normalized signal at concentration 0.00152416 [2, 12]: 0.8809
normalized signal at concentration 0.00457247 [2, 12]: 0.7545
normalized signal at concentration 0.0137174 [2, 12]: 0.9599
normalized signal at concentration 0.0411523 [2, 12]: 0.9428
normalized signal at concentration 0.123457 [2, 12]: 0.9557
normalized signal at concentration 0.37037 [2, 12]: 0.8087
normalized signal at concentration 1.11111 [2, 12]: 0.9126
normalized signal at concentration 3.33333 [2, 12]: 0.9018
normalized signal at concentration 10 [2, 12]: 1.015
PbLuc_max_inhibition (%) [2, 3]: 25%

COc1ccc(NC(=O)N(C)C[C@H]2Oc3ccc(NC(=O)CCN4CCOCC4)cc3C(=O)N([C@H](C)CO)C[C@@H]2C)cc1 [BRD-K36853881-001-02-5]
pIC50 ([1]; sheet 2nd round): < 5.00
Tox_max_inhibition (%) [1, 3]: 9%
normalized signal at concentration 10 [2, 4]: 0.82
normalized signal at concentration 0.000508053 [2, 5]: 0.84
normalized signal at concentration 0.00152416 [2, 5]: 0.86
normalized signal at concentration 0.00457247 [2, 5]: 0.85
normalized signal at concentration 0.0137174 [2, 5]: 0.75
normalized signal at concentration 0.0411523 [2, 5]: 0.91
normalized signal at concentration 0.123457 [2, 5]: 0.88
normalized signal at concentration 0.37037 [2, 5]: 0.86
normalized signal at concentration 1.11111 [2, 5]: 0.92
normalized signal at concentration 3.33333 [2, 5]: 0.69
pIC50 [2, 6]: < 5.00
normalized signal at concentration 10 [2, 7]: 0.77
normalized signal at concentration 0.000508053 [2, 8]: 1.01
normalized signal at concentration 0.00152416 [2, 8]: 0.81
normalized signal at concentration 0.00457247 [2, 8]: 0.82
normalized signal at concentration 0.0137174 [2, 8]: 0.71
normalized signal at concentration 0.0411523 [2, 8]: 0.92
normalized signal at concentration 0.123457 [2, 8]: 0.81
normalized signal at concentration 0.37037 [2, 8]: 0.84
normalized signal at concentration 1.11111 [2, 8]: 0.84
normalized signal at concentration 3.33333 [2, 8]: 0.84
PbLuc_max_inhibition (%) [2, 3]: 31%

CC(C)NC(=O)NCC[C@@H]1CC[C@H](NS(=O)(=O)c2ccc(Oc3ccccc3)cc2)[C@@H](CO)O1 [BRD-K66184091-001-01-6]
pIC50 ([1]; sheet 2nd round): < 5.00
Tox_max_inhibition (%) [1, 3]: 7%
normalized signal at concentration 0.000508053 [2, 10]: 0.909
normalized signal at concentration 0.00152416 [2, 10]: 1.056
normalized signal at concentration 0.00457247 [2, 10]: 1.03
normalized signal at concentration 0.0137174 [2, 10]: 0.8503
normalized signal at concentration 0.0411523 [2, 10]: 0.8577
normalized signal at concentration 0.123457 [2, 10]: 0.9757
normalized signal at concentration 0.37037 [2, 10]: 0.9475
normalized signal at concentration 1.11111 [2, 10]: 1.003
normalized signal at concentration 3.33333 [2, 10]: 1.282
normalized signal at concentration 10 [2, 10]: 1.243
pIC50 [2, 11]: < 5.00
normalized signal at concentration 0.000508053 [2, 12]: 0.9487
normalized signal at concentration 0.00152416 [2, 12]: 0.9281
normalized signal at concentration 0.00457247 [2, 12]: 0.7932
normalized signal at concentration 0.0137174 [2, 12]: 0.7902
normalized signal at concentration 0.0411523 [2, 12]: 0.9772
normalized signal at concentration 0.123457 [2, 12]: 0.9341
normalized signal at concentration 0.37037 [2, 12]: 0.8543
normalized signal at concentration 1.11111 [2, 12]: 0.8244
normalized signal at concentration 3.33333 [2, 12]: 0.9837
normalized signal at concentration 10 [2, 12]: 0.9187
PbLuc_max_inhibition (%) [2, 3]: 21%
